According to ChEMBL document CHEMBL1201862, “PubChem BioAssay data set” (2004):
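Protocol summary: plate cells (96-well), add compound at 5 concentrations, incubate 48 h, interpolate endpoints linearly. The concentration for 50% growth inhibition is given as GI50.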 Activity calls are given as the source filed them. Rule as the data show it: active = GI50 up to about 1.1 µM and inactive = higher.

What was measured:
Assay in all cases: NCI anticancer screen, dose series, 48 h
786-0 = system: 786-0
A498 = system: A498
A549 = system: A549
ACHN = system: ACHN
CAKI-1 = system: CAKI-1
CCRF-CEM = system: CCRF-CEM
COLO 205 = system: COLO 205
DLD-1 = system: DLD-1
DMS-114 = system: DMS-114
DMS-273 = system: DMS-273
HCC 2998 = system: HCC 2998
HCT-116 = system: HCT-116
HCT-15 = system: HCT-15
HOP-18 = system: HOP-18
HOP-62 = system: HOP-62
HT-29 = system: HT-29
IGROV-1 = system: IGROV-1
K562 = system: K562
KM-20L2 = system: KM-20L2
KM12 = system: KM12
LOX IMVI = system: LOX IMVI
LXFL 529 = system: LXFL 529
M14 = system: M14
M19-MEL = system: M19-MEL
MOLT-4 = system: MOLT-4
Malme-3M = system: Malme-3M
NCI-H226 = system: NCI-H226
NCI-H23 = system: NCI-H23
NCI-H460 = system: NCI-H460
NCI-H522 = system: NCI-H522
OVCAR-3 = system: OVCAR-3
OVCAR-4 = system: OVCAR-4
OVCAR-5 = system: OVCAR-5
OVCAR-8 = system: OVCAR-8
RPMI-8226 = system: RPMI-8226
RXF 393 = system: RXF 393
SF-268 = system: SF-268
SF-295 = system: SF-295
SF-539 = system: SF-539
SK-MEL-28 = system: SK-MEL-28
SK-MEL-2 = system: SK-MEL-2
SK-MEL-5 = system: SK-MEL-5
SN12C = system: SN12C
SNB-19 = system: SNB-19
SNB-75 = system: SNB-75
SR = system: SR
SW-620 = system: SW-620
TK-10 = system: TK-10
U-251 = system: U-251
UACC-257 = system: UACC-257
UACC-62 = system: UACC-62
UO-31 = system: UO-31
XF498 = system: XF498
EKVX = system: EKVX
HL-60 = system: HL-60

CCCCCCCCCCCC(=O)OCC1OC(OC)C(NC(=O)N(CCCl)N=O)C(O)C1O (configuration not stated)
GI50 (786-0): 0.621 µM (active)
GI50 (A498): 18.7 µM (inactive)
GI50 (A549): 12.5 µM (inactive)
GI50 (ACHN): 10.6 µM (inactive)
GI50 (CAKI-1): > 100 µM (inactive)
GI50 (CCRF-CEM): 0.516 µM (active)
GI50 (COLO 205): 21.9 µM (inactive)
GI50 (DLD-1): 17.5 µM (inactive)
GI50 (DMS-114): 16.6 µM (inactive)
GI50 (DMS-273): 11.2 µM (inactive)
GI50 (HCC 2998): 14.4 µM (inactive)
GI50 (HCT-116): 13.2 µM (inactive)
GI50 (HCT-15): 27.2 µM
GI50 (HOP-18): 34.3 µM (inactive)
GI50 (HOP-62): 18.7 µM (inactive)
GI50 (HT-29): 16.9 µM (inactive)
GI50 (IGROV-1): 29.7 µM (inactive)
GI50 (K562): 10.3 µM (inactive)
GI50 (KM-20L2): 17 µM (inactive)
GI50 (KM12): 17.3 µM (inactive)
GI50 (LOX IMVI): 6.27 µM (inactive)
GI50 (LXFL 529): 12.6 µM (inactive)
GI50 (M14): 11.1 µM (inactive)
GI50 (M19-MEL): 38.8 µM (inactive)
GI50 (MOLT-4): 1.69 µM (inactive)
GI50 (Malme-3M): 12.2 µM (inactive)
GI50 (NCI-H226): 23 µM (inactive)
GI50 (NCI-H23): > 10 µM (inactive)
GI50 (NCI-H460): 5.22 µM (inactive)
GI50 (NCI-H522): 10.3 µM (inactive)
GI50 (OVCAR-3): 16.3 µM (inactive)
GI50 (OVCAR-4): 17.8 µM (inactive)
GI50 (OVCAR-5): 20.4 µM (inactive)
GI50 (OVCAR-8): 19.3 µM (inactive)
GI50 (RPMI-8226): 7.5 µM (inactive)
GI50 (RXF 393): 13.3 µM (inactive)
GI50 (SF-268): 2.32 µM (inactive)
GI50 (SF-295): 8.24 µM (inactive)
GI50 (SF-539): 2.96 µM (inactive)
GI50 (SK-MEL-28): 15.8 µM (inactive)
GI50 (SK-MEL-2): 26.3 µM (inactive)
GI50 (SK-MEL-5): 13.1 µM (inactive)
GI50 (SN12C): 11.6 µM (inactive)
GI50 (SNB-19): 10.1 µM (inactive)
GI50 (SNB-75): 14.1 µM (inactive)
GI50 (SR): 2.79 µM (inactive)
GI50 (SW-620): 4.27 µM (inactive)
GI50 (TK-10): 25.7 µM (inactive)
GI50 (U-251): 7.06 µM (inactive)
GI50 (UACC-257): 14.3 µM (inactive)
GI50 (UACC-62): 1.33 µM (inactive)
GI50 (UO-31): 16.7 µM (inactive)
GI50 (XF498): 12.4 µM (inactive)

N=C(N)/N=C(/C=C/c1ccccc1)CC1OC(=O)c2ccccc21 (configuration not stated)
GI50 (786-0): > 100 µM (inactive)
GI50 (A498): > 100 µM (inactive)
GI50 (A549): > 100 µM (inactive)
GI50 (ACHN): > 100 µM (inactive)
GI50 (CAKI-1): > 100 µM (inactive)
GI50 (CCRF-CEM): 86.9 µM (inactive)
GI50 (COLO 205): > 100 µM (inactive)
GI50 (DLD-1): > 100 µM (inactive)
GI50 (DMS-114): > 100 µM (inactive)
GI50 (DMS-273): > 100 µM (inactive)
GI50 (EKVX): > 100 µM (inactive)
GI50 (HCC 2998): > 100 µM (inactive)
GI50 (HCT-116): > 100 µM (inactive)
GI50 (HCT-15): > 100 µM
GI50 (HL-60): > 100 µM (inactive)
GI50 (HOP-62): > 100 µM (inactive)
GI50 (HT-29): > 100 µM (inactive)
GI50 (IGROV-1): > 100 µM (inactive)
GI50 (K562): > 100 µM (inactive)
GI50 (KM-20L2): > 100 µM (inactive)
GI50 (KM12): > 100 µM (inactive)
GI50 (LOX IMVI): > 100 µM (inactive)
GI50 (LXFL 529): > 100 µM (inactive)
GI50 (M14): > 100 µM (inactive)
GI50 (M19-MEL): > 100 µM (inactive)
GI50 (MOLT-4): > 100 µM (inactive)
GI50 (Malme-3M): > 100 µM (inactive)
GI50 (NCI-H226): > 100 µM (inactive)
GI50 (NCI-H460): > 100 µM (inactive)
GI50 (NCI-H522): > 100 µM (inactive)
GI50 (OVCAR-4): > 100 µM (inactive)
GI50 (OVCAR-8): > 100 µM (inactive)
GI50 (RPMI-8226): > 100 µM (inactive)
GI50 (RXF 393): > 100 µM (inactive)
GI50 (SF-268): 61.1 µM (inactive)
GI50 (SF-295): > 10 µM (inactive)
GI50 (SF-539): > 100 µM (inactive)
GI50 (SK-MEL-2): > 100 µM (inactive)
GI50 (SK-MEL-5): > 100 µM (inactive)
GI50 (SN12C): > 100 µM (inactive)
GI50 (SNB-19): > 100 µM (inactive)
GI50 (SNB-75): > 100 µM (inactive)
GI50 (SR): > 100 µM (inactive)
GI50 (SW-620): > 100 µM (inactive)
GI50 (U-251): > 100 µM (inactive)
GI50 (UACC-257): > 100 µM (inactive)
GI50 (UACC-62): 42 µM (inactive)
GI50 (UO-31): > 100 µM (inactive)
GI50 (XF498): > 100 µM (inactive)
